# From patent publication US20010044445A1, “AZOLE INHIBITORS OF CYTOKINE PRODUCTION” (priority 1999, published 2001)
# System: Human peripheral blood mononuclear cells
# Assay: Human Concanavalin-A Proliferation Assay (Con HU Assay)
# Assay type: cell-based
# Details: Homo sapiens, PBMC, 72 h, concentration 1 μm (in parentheses in the cell); concanavalin-A stimulated human PBMC, 3 days; read-out: % Inhibition of proliferation (at concentrations of 1,10, or 100 μm)
# Protocol: Human peripheral blood mononuclear cells were cultured in RPMI 1640 medium supplemented with 10 μg/ml gentamicin, 50 μM 2-mercaptoethanol, 1X MEM non-essential amino acids (Sigma Chemical Co., St. Louis, Mo.), 100 U/ml sodium penicillin G, 100 μg/ml streptomycin sulfate, 2 mM L-glutamine, 1 mM sodium pyruvate (Life Technologies, Grand Island, N.Y.) and 10% fetal bovine serum (Hyclone, Logan, Utah) at 37° C. with 5% CO2.
# The procedure in Current Protocols in Immunology, Volume 1, Published by the Greene Publishing Associates and John Wiley & Sons, Inc, Edited by Richard Coico, 1994, hereby incorporated by reference, was followed. Briefly, 50 ml of blood from human volunteers was collected in heparinized syringes and mixed. Blood was diluted 1:1 in Dulbecco's phosphate buffered saline (D-PBS) (Life Technologies, Grand Island, N.Y.) and mixed. PBS-blood mixture was overlaid into 50 ml centrifuge tubes containing 15 ml Histopaque 1077 (Sigma Chemical Co., St. Louis, Mo.) and centrifuged at 500 X G for 30 minutes at room temperature. Cells at the interface from each Histopaque tube were removed and mixed with 5 ml of D-PBS. Each cell suspension was diluted to 50 ml with D-PBS, mixed and centrifuged at 400 X G for 15 minutes at room temperature. After most of the supernatant was removed, cells were resuspended to 40 ml with D-PBS per tube (2 tubes per donor). Cells were centrifuged at 400 X G for 10 minutes at room temperature. Pellets were resuspended in 10 ml of supplemented RPMI 1640 and cell number determined with a Coulter counter. Cells were diluted to a concentration of 0.5×10^6 cells per mL.
# The procedure in Current Protocols in Immunology, Volume 1, Published by the Greene Publishing Associates and John Wiley & Sons, Inc, Edited by Richard Coico, 1994, hereby incorporated by reference, was followed. Briefly, test compounds were added to appropriate wells on 96-well tissue culture plates (Corning Glass Works, Corning, N.Y.) in 20 µl of supplemented RPMI 1640. Human peripheral blood mononuclear cells were added to each well in 100 μl volumes (final cell concentration equal to 50,000 cells per well). After 15 minutes, 100 μl of 5 μg/ml concanavalin-A (Sigma Chemical Co., St. Louis, Mo.) in supplemented RPMI 1640 was added to a final concentration of 2.5 μg/ml. Plates were incubated for 3 days at 37° C. with 5% CO2. On day 3, plates were pulsed with 0.5 μCi/well tritiated thymidine (New England Nuclear, Boston, Mass.). After 6 hours, plates were harvested on a Tomatec 96-well havester (Orange, Conn.). Glass filter mats were counted on a Matrix 9600 direct beta counter (Packard, Meriden, Conn.).
row,Compound,inhibition at 1 µM
1,"N#Cc1cccc(NCc2ccc(-n3nc(C(F)(F)F)cc3C(F)(F)F)cc2)c1 [Example 128, 3-[[[4-[3,5-bis(trifluoromethyl)-1H-pyrazol-1-yl]phenyl]methyl]amino]benzonitrile]",25%
2,"O=C(Nc1ccc(-n2nc(C(F)(F)F)cc2C(F)(F)F)cc1)c1ccc(Br)o1 [Example 251, N-[4-[3,5-bis(trifluoromethyl)-1H-pyrazol-1-yl]phenyl]-5-bromo-2-furancarboxamide]",50%
3,"CN(C(=O)c1ccccc1Cl)c1ccc(-n2nc(C(F)(F)F)cc2C(F)(F)F)cc1 [Example 80, N-[4-[3,5-bis(trifluoromethyl)-1H-pyrazol-1-yl]phenyl]-2-chloro-N-methylbenzamide]",43%
4,"CCN(CC)c1ccc(C(=O)Nc2ccc(-n3nc(C(F)(F)F)cc3C(F)(F)F)cc2)cc1 [Example 122, N-[4-[3,5-bis(trifluoromethyl)-1H-pyrazol-1-yl]phenyl]-4-(diethylamino)benzamide]",15%
5,"Fc1ccc(NCc2ccc(-n3nc(C(F)(F)F)cc3C(F)(F)F)cc2)c(F)c1 [Example 108, 4-[3,5-bis(trifluoromethyl)-1H-pyrazol-1-yl]-N-(2,4-difluorophenyl)benzenemethanamine]",18%
6,"CC1CCC(C(=O)Nc2ccc(-n3nc(C(F)(F)F)cc3C(F)(F)F)cc2)CC1 (centres unmarked) [Example 54, N-[4-[3,5-bis(trifluoromethyl)-1H-pyrazol-1-yl]phenyl]-4-methylcyclohexanecarboxamide]",12%
7,"CN(C)c1ccccc1C(=O)Nc1ccc(-n2nc(C(F)(F)F)cc2C(F)(F)F)cc1 [Example 86, N-[4-[3,5-bis(trifluoromethyl)-1H-pyrazol-1-yl]phenyl]-2-(dimethylamino)benzamide]",33%
8,"O=C1CCC(C(=O)Nc2ccc(-n3nc(C(F)(F)F)cc3C(F)(F)F)cc2)N1 (centres unmarked) [Example 255, N-[4-[3,5-bis(trifluoromethyl)-1H-pyrazol-1-yl]phenyl]-5-oxo-2-pyrrolidinecarboxamide]",12%

# Same assay, conditions: Homo sapiens, PBMC, 72 h, concentration 100 μm (in parentheses in the cell); concanavalin-A stimulated human PBMC, 3 days; read-out: % Inhibition of proliferation (at concentrations of 1,10, or 100 μm)
row,Compound,inhibition at 100 µM
1,"CC(C)(C)OC(=O)N1CCC(C(=O)Nc2ccc(-n3nc(C(F)(F)F)cc3C(F)(F)F)cc2)CC1 [Example 120, 1,1-Dimethylethyl 4-[[[4-[3,5-bis(trifluoromethyl)-1H-pyrazol-1-yl]phenyl]amino]carbonyl]-1-piperidinecarboxylate]",100%
2,"Cc1cc(C(F)(F)F)nn1-c1ccc(NC(=O)c2ccc(Cl)cc2)cc1 [Example 281, 4-chloro-N-[4-[5-methyl-3-(trifluoromethyl)-1H-pyrazol-1-yl]phenyl]benzamide]",94%
3,"CNC(=O)c1ccccc1C(=O)Nc1ccc(-n2nc(C(F)(F)F)cc2C(F)(F)F)cc1 [Example 115, N-[4-[3,5-bis(trifluoromethyl)-1H-pyrazol-1-yl]phenyl]-N′-methyl-1,2-benzenedicarboxamide]",71%

# Same assay, conditions: Homo sapiens, PBMC, concanavalin-A stimulated human PBMC, tritiated thymidine
row,Compound,IC50
1,"N#Cc1cc(-c2ccccn2)nn1-c1ccc(NC(=O)c2ccncc2F)cc1 [Example 330, N-(4-(5-cyano-3-(2-pyridinyl)-1H-pyrazol-1-yl)phenyl)-3-fluoroisonicotinamide]",0.169 µM
2,"NCc1ccc(C(=O)Nc2ccc(-n3nc(C(F)(F)F)cc3C(F)(F)F)cc2)c(Cl)c1 [Example 294, 4-(aminomethyl)-N-(4-(3,5-bis(trifluoromethyl)-1H-pyrazol-1-yl)phenyl)-2-chlorobenzamide]",0.299 µM
3,"O=C(Nc1ccc(-n2nc(-c3ccoc3)cc2OC(F)F)cc1)c1ccncc1F [Example 359, N-(4-(5-(difluoromethoxy)-3-(3-furyl)-1H-pyrazol-1-yl)phenyl)-3-fluoroisonicotinamide]",0.261 µM
4,"CCOc1cc(C(F)(F)F)nn1-c1ccc(NC(=O)c2cccnc2F)cc1 [Example 319, N-(4-(5-ethoxy-3-(trifluoromethyl)-1H-pyrazol-1-yl)phenyl)-2-fluoronicotinamide]",0.219 µM
5,"O=C(Nc1ccc(-n2nc(-c3cccnc3)cc2C(F)F)cc1)c1ccncc1F [Example 329, N-(4-(5-(difluoromethyl)-3-(3-pyridinyl)-1H-pyrazol-1-yl)phenyl)-3-fluoroisonicotinamide]",0.303 µM
6,"CC(C)(C)OC(=O)N1CCC(C(=O)Nc2ccc(-n3nc(C(F)(F)F)cc3C(F)(F)F)cc2)CC1 [Example 120, 1,1-Dimethylethyl 4-[[[4-[3,5-bis(trifluoromethyl)-1H-pyrazol-1-yl]phenyl]amino]carbonyl]-1-piperidinecarboxylate]",0.488 µM
7,"O=C(Nc1ccc(-n2nc(C(F)(F)F)cc2[N+](=O)[O-])cc1)c1ccccc1F [Example 326, 2-fluoro-N-(4-(5-nitro-3-(trifluoromethyl)-1H-pyrazol-1-yl)phenyl)benzamide]",0.166 µM
8,"Cn1ccc(-c2cc(OC(F)F)n(-c3ccc(NC(=O)c4ccncc4F)cc3)n2)c1 [Example 358, N-(4-(5-(difluoromethoxy)-3-(1-methyl-1H-pyrrol-3-yl)-1H-pyrazol-1-yl)phenyl)-3-fluoroisonicotinamide]",0.203 µM
9,"O=C(Nc1ccc(-n2nc(C(F)(F)F)cc2Br)cc1)c1ccncc1F [Example 332, N-(4-(5-bromo-3-(trifluoromethyl)-1H-pyrazol-1-yl)phenyl)-3-fluoroisonicotinamide]",0.044 µM
10,"O=C(Nc1ccc(-n2nc(-c3cccnc3)cc2[N+](=O)[O-])cc1)c1ccncc1F [Example 334, 3-fluoro-N-{4-[5-nitro-3-(3-pyridinyl)-1H-pyrazol-1-yl]phenyl}isonicotinamide]",0.297 µM
11,"N#Cc1cc(C(F)(F)F)nn1-c1ccc(NC(=O)c2ccccc2F)cc1 [Example 300, N-{4-[5-cyano-3-(trifluoromethyl)-1H-pyrazol-1-yl]phenyl}-2-fluorobenzamide]",0.079 µM
12,"N#Cc1cc(C2CCCO2)nn1-c1ccc(NC(=O)c2ccncc2F)cc1 (centres unmarked) [Example 357, N-(4-(5-cyano-3-tetrahydro-2-furanyl-1H-pyrazol-1-yl)phenyl)-3-fluoroisonicotinamide]",1.85 µM
13,"Cc1cc(C(F)(F)F)nn1-c1ccc(NC(=O)c2ccc(Cl)cc2)cc1 [Example 281, 4-chloro-N-[4-[5-methyl-3-(trifluoromethyl)-1H-pyrazol-1-yl]phenyl]benzamide]",1.06 µM
14,"O=C(Nc1ccc(-n2nc(C(F)(F)F)cc2C(F)(F)F)nc1)c1ccccc1F [Example 292, N-(6-(3,5-bis(trifluoromethyl)-1H-pyrazol-1-yl)-3-pyridinyl)-2-fluorobenzamide]",0.258 µM
15,"CNC(=O)c1ccccc1C(=O)Nc1ccc(-n2nc(C(F)(F)F)cc2C(F)(F)F)cc1 [Example 115, N-[4-[3,5-bis(trifluoromethyl)-1H-pyrazol-1-yl]phenyl]-N′-methyl-1,2-benzenedicarboxamide]",51.3 µM
16,"N#Cc1cc(C(F)(F)F)nn1-c1ccc(NC(=O)c2cc(F)cc(F)c2F)cc1 [Example 307, N-(4-(5-cyano-3-(trifluoromethyl)-1H-pyrazol-1-yl)phenyl)-2,3,5-trifluorobenzamide]",0.079 µM
17,"Cc1nnsc1C(=O)Nc1ccc(-n2nc(-c3nccs3)cc2C(F)(F)F)cc1 [Example 342, 4-methyl-N-(4-(3-(1,3-thiazol-2-yl)-5-(trifluoromethyl)-1H-pyrazol-1-yl)phenyl)-1,2,3-thiadiazole-5-carboxamide]",0.238 µM

# Same assay, conditions: concanavalin-A stimulated human PBMC, tritiated thymidine
row,Compound,IC50
1,"O=C(Nc1ccc(-n2nc(C(F)(F)F)cc2C(F)(F)F)cc1)C1C=CCCC1 (centres unmarked) [Example 53, N-[4-[3,5-bis(trifluoromethyl)-1H-pyrazol-1-yl]phenyl]-2-cyclohexane-1-carboxamide]",0.202 µM
2,O=C(Nc1ccc(-n2nc(C(F)(F)F)cc2C(F)(F)F)cc1)c1ccc(O)c(Br)c1 [Example 222],0.76 µM

# Same assay, conditions: concentration 1 μm (in parentheses in the cell); concanavalin-A stimulated human PBMC, 3 days
row,Compound,"% Inhibition of proliferation (at concentrations of 1,10, or 100 μm)"
1,"CC1(C)C(C(=O)Nc2ccc(-n3nc(C(F)(F)F)cc3C(F)(F)F)cc2)C1(C)C [Example 2, N-[4-[3,5-bis(trifluoromethyl)-1H-pyrazol-1-yl]phenyl]-2.2.3.3-tetramethylcyclopropanecarboxamide]",1(1) %
2,CC(=O)Nc1ccc(-n2nc(C(F)(F)F)cc2C(F)(F)F)cc1 [Example 156],16(1) %
3,"CC(C)(C)OC(=O)NCCCC(=O)Nc1ccc(-n2nc(C(F)(F)F)cc2C(F)(F)F)cc1 [Example 173, 1,1-Dimethylethyl [[4-[4-[3,5-bis(trifluoromethyl)-1H-pyrazol-1-yl]phenyl]amino]-4-oxobutyl]carbamate]",28(1) %

# Same assay, conditions: concentration 10 μm (in parentheses in the cell); concanavalin-A stimulated human PBMC, 3 days
row,Compound,"% Inhibition of proliferation (at concentrations of 1,10, or 100 μm)"
1,O=C(Nc1ccc(-n2nc(C(F)(F)F)cc2C(F)(F)F)cc1)c1ccc(O)c(Br)c1 [Example 222],100(10) %

# Same assay, conditions: concentration 100 μm (in parentheses in the cell); concanavalin-A stimulated human PBMC, 3 days
row,Compound,"% Inhibition of proliferation (at concentrations of 1,10, or 100 μm)"
1,"O=C(Nc1ccc(-n2nc(C(F)(F)F)cc2C(F)(F)F)cc1)C1C=CCCC1 (centres unmarked) [Example 53, N-[4-[3,5-bis(trifluoromethyl)-1H-pyrazol-1-yl]phenyl]-2-cyclohexane-1-carboxamide]",99(100) %
